Results on 2 compounds are retold here after patent publication US20250242060A1, “CHEMOGENETIC REGULATION OF PEPTIDE FUNCTION” (priority 2022, published 2025).

The test system of assay [1] is mu-opioid receptor (MOR). Nature of the assay: GloSensor cAMP assay, single chain met-enkephalin-CapC-MOR. Particulars: HEK 293T, forskolin stimulated. In general terms: Changes in cAMP serve as a functional read-out for many G protein-coupled receptors.
Excerpt: A cyclic adenosine monophosphate (cAMP)-dependent luciferase (GloSensor) was used to monitor the activation of mu-opioid receptor. By expressing the real-time sensor GloSensor in cells, greater luminescence is observed when the cAMP concentration is high, and lower luminescence when the cAMP concentration is low. The GloSensor assay complements the split NanoLuc assay because it measures a downstream event rather than just binding between a G protein and the receptor i.e., membrane tethered opioid peptides (M-PROBE) activation not only causes G protein recruitment, but also downstream signaling events.
To test whether the M-PROBE induces downstream signaling as a free opioid, and that function of met-enkephalin is well-preserved in the membrane-tethered geometry, the same single chain met-enkephalin-CapC-MOR was expressed on the membrane of HEK 293T cells, and co-transfected cells with the cAMP-dependent luciferase. After overnight protein expression, HEK 293T cells were stimulated with forskolin to enhance the cAMP concentration within the cells. MOR is an inhibitory G-protein coupled receptor (GPCR), and its activation leads to decreased cAMP levels. A high cAMP concentration magnifies the effect of MOR activation.
In assay [2] the test system is CAPs-caged TEVcs with TEV protease in HEK 293T cells. Nature of the assay: Shield-1 induced delocalization from the plasma membrane to the cytosol. It counts as cell-based. Particulars: 10 μM shield-1, 18 h. Here is the method: CAPs-caged TEVcs were anchored to the plasma membrane, followed by the POI (FIG. 9c). Under no shield-1 conditions, TEVcs are inaccessible to the co-expressed TEV protease, and the POI remains localized on the plasma membrane. With shield-1, TEVcs are uncaged and cleaved by TEV protease, thereby releasing the POI from the cell membrane.
Two extra wells without any infection are also plated for background subtraction. […] The two non-infection wells are treated with shield-1 and without shield-1, respectively. HEK 293T cells were incubated for 18 h at 37° C. before imaging.

Assay [3] addresses T1, LID (FKBP with original binding sequence) fused to SsrA (Homo sapiens, UniProt P62942, F37V).
T1 construct: expressed in transfected cells; host or cells: Saccharomyces cerevisiae EBY100, surface display from pCTCON2
Briefly: Yeast surface binding assay, SsrA caged by LID. The note with it: LID degradation sequence replaced with SsrA. Here is the method: (§1) The ability of LID to cage two short peptides that have been previously shown to be controllable by the AsLOV2 domain was tested. […] The degradation sequence (RRRGN) in LID was replaced with TEVcs or SsrA, and the remainder of the binding sequence and linker was retained (FIG. 1d).
Yeast that expressed SsrA (CapC constructs) was subject to APEX2 labeling^40 prior to labeling with antibody-fluorophore and streptavidin-fluorophore conjugates. Samples were incubated with 100 μL of PBSB containing SspB-APEX2 (expressed and purified as described above, under “Expression and purification of SspB-APEX2”) and 5 μM shield-1 at room temperature for 10 min with rotation. […]
(§2) After TEVp or APEX2 labeling, samples were labeled with antibody-fluorophore and/or streptavidin-fluorophore conjugates. […] All samples were resuspended in PBSB and analyzed or sorted by FACS (fluorescence-activated cell sorting, following procedures described under “FACS analysis and library selection”) within 24 h of labeling.
(§3) After labeling according to the procedures described above (under “Yeast labeling”), non-library yeast samples were analyzed with an LSRFortessa cell analyzer flow cytometer (BD Biosciences) equipped with 640 nm laser and 670/14 emission filter (for Alexa Fluor647) as well as 561 nm laser and 586/15 emission filter (for Alexa Fluor568 and PE). […]

The target in assay [4] is T2, LID (FKBP with original binding sequence) fused to TEVcs (Homo sapiens, UniProt P62942, F37V).
T2 construct: TEVcs (ENLYFQ/G) (C); HA (C); expressed in transfected cells; host or cells: Saccharomyces cerevisiae EBY100, surface display from pCTCON2
Nature of the assay: Yeast surface protease cleavage assay, TEVcs caged by LID. The note with it: LID degradation sequence replaced with TEVcs. It counts as biochemical. Here is the method:
as §1
Yeast that expressed TEV protease cleavage site (CapN constructs) was treated with TEVp prior to labeling with antibody-fluorophore conjugate. Samples were incubated with 200 μL PBSB containing TEVp (expressed and purified as described above, under “Expression and purification of TEV protease”) and 5 μM shield-1 at 4° C. for 3 h with rotation. For negative control, either TEVp or shield-1, or both, was not present in PBSB. […]
as §2, §3

Another assay addresses T3, CapN (Homo sapiens, UniProt P62942, F37V).
T3 construct: expressed in transfected cells; host or cells: Saccharomyces cerevisiae EBY100, surface display from pCTCON2
Nature of the assay: Shield-1 reversibility characterization with CapN-caged SsrA on yeast surface. It counts as binding. The note with it: 10 min shield-1, washed, incubated up to 12 h without shield-1. The method, then:
FIG. 4. […] Yeast cells were incubated with shield-1 for 10 min, followed by washing to remove excess shield-1. […] Values are median biotin intensity of FLAG-positive cells (Q2+Q4). […] This experiment was performed once.
Yeast that expressed SsrA (CapC constructs) was subject to APEX2 labeling^40 prior to labeling with antibody-fluorophore and streptavidin-fluorophore conjugates. Samples were incubated with 100 μL of PBSB containing SspB-APEX2 (expressed and purified as described above, under “Expression and purification of SspB-APEX2”) and 5 μM shield-1 at room temperature for 10 min with rotation. For negative controls, either SspB-APEX2 or shield-1, or both, was not present in PBSB. […]
as §2, §3

In assay [5] the test system is CAPs-caged NLS (PKIt NES-EGFP-CapN-NLS-CapC) in HEK 293T cells. Briefly: Shield-1 controlled nuclear-cytoplasmic protein distribution. It counts as cell-based. The note with it: 10 μM shield-1, 18 h. From the text: The nucleocytoplasmic distribution of many eukaryotic proteins is a common determinant of their functions^30. Previously, NLS has been controlled by light through customized engineering with the AsLOV2 domain^13,14. To test if NLS is controlled by CAPs in a shield-I-dependent manner, a single-chain construct was designed in which a POI is expressed as a fusion protein with CAPs-caged NLS (FIG. 9e). […] Addition of shield-1 opens the CAPs and exposes NLS to endogenous importins, bringing the POI to the nucleus. Due to the strength of the NLS, a weak nuclear export signal, PKIt^13, was added to the construct to reduce the nuclear localization of the protein in the basal state.
HEK 293T cells were incubated for 18 h at 37° C. before imaging. […] Individual cells and the nuclei are determined by mCherry signal. Mean intensity and area are acquired with Nikon NIS-Elements analysis module. Mean intensities were subtracted by background mean intensity, and the resulting number is multiplied with the area to give total intensities. The EGFP distribution ratio was calculated by the total intensity of EGFP in the cytosol to that in the whole cell. P value was determined by unpaired two-tailed t-tests.

Assay [6] relates to mu-opioid receptor (MOR). Briefly: Split NanoLuc assay, 1-chain CapC-caged met-enkephalin fused to opioid receptor, Nb44 recruitment. The assay is classed as cell-based. Particulars: HEK293T cells, 1-chain design. From the text: To test shield-1 chemical-dependent regulation of an opioid peptide, CapC-caged met-enkephalin was fused directly onto the N-terminus of the opioid receptor as shown in the right panel of FIG. 22. In this design, the M-PROBE cell membrane tethered opioid peptides (M-PROBE) and the opioid receptors were expressed in a fixed ratio in close proximity.

In assay [7] the target is CAPs-caged SsrA (mCherry-CapN-SsrA-CapC-CAAX) with SspB-EGFP in HEK 293T cells (Homo sapiens, UniProt P62942, F37V). Briefly: Shield-1 induced protein translocation to the plasma membrane. The note with it: 1 μM shield-1.
Excerpt: To test use of CAPs for protein translocation, a shield-1 induced membrane localization system was designed (FIG. 9). In this design, CAPs-caged SsrA peptide is localized on the plasma membrane of HEK 293T cells by fusing to a transmembrane domain. The interacting partner of SsrA, SspB protein, is fused to the protein of interest (POI). As an example, evolved green fluorescent protein (EGFP) was used as the POI. Without shield-1, no binding between SsrA and SspB occurs, and EGFP is found throughout the cell.
Cells were incubated for 24 h at 37° C. before further processing. HEK293T cells were imaged with 60× oil-immersion objective on the Nikon inverted confocal microscope. Shield-1 dissolved in complete growth media was added gently to the top of the media to 1 μM during imaging. The intensity profile was acquired with Nikon NIS-Elements analysis module and plotted by GraphPad Prism 7.
Assay [8] deals with T4, CAPs-caged SsrA split transcription factor (P2A construct u4) in rat cortical neurons UniProt P62942, F37V).
T4 construct: P2A self-cleaving peptide, separating it from the SspB-VP16 part (cleaved yes); host or cells: cultured rat cortical neurons, AAV
Nature of the assay: Shield-1 dependent gene transcription in cultured neurons, TetR DBD, TRE-mCherry reporter. The note with it: AAV, 2 μM shield-1, 24 h. The assay is classed as cell-based. The method, then: To test the CAPs chemical-dependent transcriptional system in neuroscience applications, it was tested in cultured neurons. To enable homogeneous expression of DNA in stringent experiments, we generated single viral constructs that express both the DNA-binding and the transcription-activation domains via the self-cleaving peptide P2A or the internal ribosome entry site (TRES) were constructed (FIG. 12b). […] The P2A construct was then used to introduce the TetR DBD and VP16 transcription-activation domain into cultured rat cortical neurons through adeno-associated viruses (AAV), together with another AAV encoding the TRE-mCherry reporter gene. Shield-1 induced 44-fold increase in mCherry reporter gene expression compared to the no shield-1 condition (FIG. 12e and FIG. 19), showing that this system works robustly in cultured neurons.
Rat cortical neurons (Thermo Fisher Scientific, Cat #A1084001) were plated according to the user protocol. […] The viable cell density was determined by adding 10 μL of the cell suspension to 10 μl 0.4% Trypan blue, followed by cell counting using hemocytometer. […]
For neuronal infection, either concentrated AAVes or supernatant AAVes were added the neurons at DIV5-DIV10 (days in vitro). […] P values were determined by unpaired two-tailed t-tests.

The target of another assay is FKBP12(F36V) (Homo sapiens, UniProt P62942, F37V). The note with it: cited from earlier work.
Assay [9] has as its system CAPs-caged SsrA split transcription factor in HEK 293T cells. Briefly: Shield-1 dependent gene transcription activation, Gal4 DBD, UAS-mCherry reporter. The assay is classed as cell-based. Further details: Gene expression (mCherry) at different shield-1 concentrations: dose or concentration left out as unconfirmed. Particulars: for Shield-1-induced increase in mCherry intensity: + vs - shield-1.

SMILES strings stand for the structures. “Also recorded” adds a separate entry of the source. Bounds are passed on as bounds.

Chain of FKBP12(F36V) (P62942 whole entry F37V, the tested form may be a part): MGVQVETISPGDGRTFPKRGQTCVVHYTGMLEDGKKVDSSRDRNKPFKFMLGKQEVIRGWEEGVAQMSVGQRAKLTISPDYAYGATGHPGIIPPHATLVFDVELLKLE
T3 sequence (P62942 with tags, fused parts or gaps F37V): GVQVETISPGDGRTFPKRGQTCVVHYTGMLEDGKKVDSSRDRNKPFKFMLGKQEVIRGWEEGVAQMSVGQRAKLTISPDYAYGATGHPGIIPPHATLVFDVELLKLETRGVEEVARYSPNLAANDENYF
T1 sequence (P62942 with tags, fused parts or gaps F37V): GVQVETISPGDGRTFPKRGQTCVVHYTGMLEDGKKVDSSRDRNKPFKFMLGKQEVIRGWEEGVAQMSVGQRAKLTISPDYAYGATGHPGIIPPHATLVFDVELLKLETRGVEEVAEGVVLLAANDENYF
Chain of CAPs-caged SsrA (mCherry-CapN-SsrA-CapC-CAAX) with SspB-EGFP in HEK 293T cells (P62942 with tags, fused parts or gaps F37V): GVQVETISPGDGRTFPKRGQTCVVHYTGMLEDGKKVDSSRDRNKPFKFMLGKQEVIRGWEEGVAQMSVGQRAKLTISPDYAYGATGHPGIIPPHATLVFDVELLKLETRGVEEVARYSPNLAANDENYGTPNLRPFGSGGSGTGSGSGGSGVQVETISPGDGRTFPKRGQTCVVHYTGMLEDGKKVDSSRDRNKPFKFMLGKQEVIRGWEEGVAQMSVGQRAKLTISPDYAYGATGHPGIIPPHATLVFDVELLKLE
T2 sequence (P62942 with tags, fused parts or gaps F37V limits assumed): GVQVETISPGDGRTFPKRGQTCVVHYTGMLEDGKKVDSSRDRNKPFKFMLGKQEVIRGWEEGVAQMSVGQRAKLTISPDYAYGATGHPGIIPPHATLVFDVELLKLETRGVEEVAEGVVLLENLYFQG

In the assay with mu-opioid receptor (MOR) [1] (10 micromolar), `C[C@@H](NC(=O)[C@@H](N)Cc1ccc(O)cc1)C(=O)NCC(=O)N(C)[C@@H](Cc1ccccc1)C(=O)NCCO` [DAMGO] displayed a Decrease in luminescence of roughly 80%.
`CC[C@H](C(=O)N1CCCC[C@H]1C(=O)O[C@H](CCc1ccc(OC)c(OC)c1)c1cccc(OCCN2CCOCC2)c1)c1cc(OC)c(OC)c(OC)c1` [shield-1]: in [2], the “EGFP localization after shield-1 addition” value is “depletes EGFP from the plasma membrane; also recorded: depleted the EGFP from the plasma membrane and significantly increased its presence in the cytoplasm”. In assay [3], the “Shield-1 dependence of SsrA accessibility” value is recorded as “not observed”. Also, the “Shield-1 dependence of TEVcs accessibility” value in assay [4] is given as “not observed”. For the same compound, on CapN, the “Biotin signal / CapN state after washing away shield-1” value is on record as “No decrease in biotin signal; also recorded: CapN remained open”. Also, in [5], the “EGFP nuclear-cytosolic distribution after shield-1 addition” value was “depleted from the cytosol and preferentially localized in the nucleus”. In addition, in the assay with mu-opioid receptor (MOR) [6], the “Luminescence signal (RLU)” value is reported as “increase the signal”. For the same compound, in [7], the “Time to EGFP translocation to the plasma membrane” value is given as “within seconds”. This compound also returned a Decrease in luminescence in the assay with mu-opioid receptor (MOR) [1] (shield-1 treated) of roughly 50%. For the same compound, the “Increase in mCherry reporter gene expression vs no shield-1” value in [8] was 44 fold. Also, at FKBP12(F36V) (FKBP12(F36V) vs wild-type FKBP), the “Affinity for FKBP relative to wild-type FKBP” value is on record as “over 1000 fold”. For the same compound, the “Affinity for FKBP” value on FKBP12(F36V) (FKBP12(F36V)) is given as “sub-nanomolar”. For the same compound, the “Shield-1-induced increase in mCherry intensity” value in [9] (CAPs (tandem) caged 8-amino-acid SsrA) is recorded as roughly 25 fold; in assay [9] (CapN caged 8-amino-acid SsrA), roughly 4 fold. Also, the “Shield-1 dependent reporter gene expression change” value in [9] (CAPs caged 7-amino-acid SsrA (AANDENY), construct u3) was 156 fold. Moreover, the “Gene expression (mCherry) at different shield-1 concentrations” value in [9] (construct u3) is recorded as “robust gene expression”. In addition, the “Shield-1 incubation period sufficient to induce gene expression” value in [9] (construct u3, 1 μM shield-1, imaged 24 h after addition) is recorded as 30 min. The compound further registered a Gene expression induction in [9] (construct u3, overnight incubation, shield-1 50 nM or above) greater than 30 fold. For the same compound, in assay [9] (construct u3, overnight incubation, shield-1 below 10 nM), the Gene expression result is recorded as “did not induce gene expression”. The “Shield-1 dependent dynamic range” value in assay [9] (maximum over caged peptides) was “up to 156 fold”. Also, in assay [9] (shield-1 added to EGFP-SspB-VP16 alone), the “Level of EGFP (transcription-activation domain expression)” value is “No difference was found; also recorded: did not increase the level of EGFP”. In addition, the entries for the “Increase in mCherry expression” value in assay [9] (single viral IRES construct (u5)) and in assay [9] (single viral P2A construct (u4)) were 123 fold and 83 fold, respectively.
